# Test system: K24384-001-R-PDC complex spheroid viability
# Test: Anticancer human tumor K24384-001-R-PDC patient-derived pancreatic adenocarcinoma cell line growth inhibition
# Details: for IC50: curve of first compound; for viability, T/C: stronger effect = lower value
# In short: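 Multicellular complex spheroids of tumor cells with human endothelial cells (HUVEC) and mesenchymal stem cells; the LSD1 inhibitor iadademstat was combined with standard-of-care or investigational agents. Top concentration at or near clinical Cmax, half-log dilutions; final DMSO ≤0.25%.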
# [1] = second compound 0.1 µM, first compound 0.00316 µM
# [2] = second compound 0.1 µM, first compound 0.01 µM
# [3] = second compound 0.1 µM, first compound 0.0316 µM
# [4] = second compound 0.1 µM, first compound 0.1 µM
# [5] = second compound 0.316 µM, first compound 0.00316 µM
# [6] = second compound 0.316 µM, first compound 0.01 µM
# [7] = second compound 0.316 µM, first compound 0.0316 µM
# [8] = second compound 0.316 µM, first compound 0.1 µM
# [9] = second compound 1 µM, first compound 0.00316 µM
# [10] = second compound 1 µM, first compound 0.01 µM
# [11] = second compound 1 µM, first compound 0.0316 µM
# [12] = second compound 1 µM, first compound 0.1 µM
# [13] = second compound 3.16 µM, first compound 0.00316 µM
# [14] = second compound 3.16 µM, first compound 0.01 µM
# [15] = second compound 3.16 µM, first compound 0.0316 µM
# [16] = second compound 3.16 µM, first compound 0.1 µM
# [17] = second compound 10 µM, first compound 0.00316 µM
# [18] = second compound 10 µM, first compound 0.01 µM
# [19] = second compound 10 µM, first compound 0.0316 µM
# [20] = second compound 10 µM, first compound 0.1 µM
# 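Further: spheroids exposed to agents for seven days before luminescence viability reading.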
# 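Wherever viability, T/C is given: 100% = DMSO vehicle control viability.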
structure (smiles),measurement,setting,value
COc1cc(Nc2ncc3c(n2)-c2ccc(Cl)cc2C(c2c(F)cccc2OC)=NC3)ccc1C(=O)O + NC1CC1c1ccc(-c2cccc(O)c2)cc1,IC50,second compound 0.1 µM,> 1000 nM
same,IC50,second compound 0.316 µM,> 1000 nM
same,IC50,second compound 1 µM,48.3 nM
same,IC50,second compound 3.16 µM,34.1 nM
same,IC50,second compound 10 µM,25.1 nM
same,"viability, T/C",[1],74.2%
same,"viability, T/C",[2],72.7%
same,"viability, T/C",[3],62.4%
same,"viability, T/C",[4],57.3%
same,"viability, T/C","second compound 0.1 µM, first compound 0.316 µM",55.8%
same,"viability, T/C","second compound 0.1 µM, first compound 1 µM",60.3%
same,"viability, T/C",[5],68%
same,"viability, T/C",[6],63.1%
same,"viability, T/C",[7],51.9%
same,"viability, T/C",[8],47.8%
same,"viability, T/C","second compound 0.316 µM, first compound 0.316 µM",45.5%
same,"viability, T/C","second compound 0.316 µM, first compound 1 µM",58.9%
same,"viability, T/C",[9],61.1%
same,"viability, T/C",[10],62.5%
same,"viability, T/C",[11],52.8%
same,"viability, T/C",[12],43.7%
same,"viability, T/C","second compound 1 µM, first compound 0.316 µM",43.2%
same,"viability, T/C","second compound 1 µM, first compound 1 µM",48.9%
same,"viability, T/C",[13],56.6%
same,"viability, T/C",[14],64%
same,"viability, T/C",[15],50.4%
same,"viability, T/C",[16],39.6%
same,"viability, T/C","second compound 3.16 µM, first compound 0.316 µM",42.5%
same,"viability, T/C","second compound 3.16 µM, first compound 1 µM",49.8%
same,"viability, T/C",[17],65.4%
same,"viability, T/C",[18],62.4%
same,"viability, T/C",[19],45.7%
same,"viability, T/C",[20],44.6%
same,"viability, T/C","second compound 10 µM, first compound 0.316 µM",42.4%
same,"viability, T/C","second compound 10 µM, first compound 1 µM",54.7%
Cn1ncnc1C1c2n[nH]c(=O)c3cc(F)cc(c23)NC1c1ccc(F)cc1 (stereo not given) + NC1CC1c1ccc(-c2cccc(O)c2)cc1,IC50,second compound 0.1 µM,> 100 nM
same,IC50,second compound 0.316 µM,> 100 nM
same,IC50,second compound 1 µM,> 100 nM
same,IC50,second compound 3.16 µM,> 100 nM
same,IC50,second compound 10 µM,> 100 nM
same,"viability, T/C","second compound 0.1 µM, first compound 0.000316 µM",92.8%
same,"viability, T/C","second compound 0.1 µM, first compound 0.001 µM",121%
same,"viability, T/C",[1],104%
same,"viability, T/C",[2],88.4%
same,"viability, T/C",[3],77.6%
same,"viability, T/C",[4],77.8%
same,"viability, T/C","second compound 0.316 µM, first compound 0.000316 µM",101%
same,"viability, T/C","second compound 0.316 µM, first compound 0.001 µM",105%
same,"viability, T/C",[5],84.4%
same,"viability, T/C",[6],85.8%
same,"viability, T/C",[7],93.8%
same,"viability, T/C",[8],73.3%
same,"viability, T/C","second compound 1 µM, first compound 0.000316 µM",108%
same,"viability, T/C","second compound 1 µM, first compound 0.001 µM",96.7%
same,"viability, T/C",[9],84.5%
same,"viability, T/C",[10],94.2%
same,"viability, T/C",[11],78.3%
same,"viability, T/C",[12],102%
same,"viability, T/C","second compound 3.16 µM, first compound 0.000316 µM",91.7%
same,"viability, T/C","second compound 3.16 µM, first compound 0.001 µM",96.9%
same,"viability, T/C",[13],93.6%
same,"viability, T/C",[14],101%
same,"viability, T/C",[15],102%
same,"viability, T/C",[16],75.8%
same,"viability, T/C","second compound 10 µM, first compound 0.000316 µM",108%
same,"viability, T/C","second compound 10 µM, first compound 0.001 µM",111%
same,"viability, T/C",[17],126%
same,"viability, T/C",[18],94.9%
same,"viability, T/C",[19],96%
same,"viability, T/C",[20],86.5%
NS(=O)(=O)OCC1CC(n2ccc3c(NC4CCc5ccccc54)ncnc32)CC1O (stereo not given) + NC1CC1c1ccc(-c2cccc(O)c2)cc1,IC50,second compound 0.1 µM,439 nM
same,IC50,second compound 0.316 µM,570 nM
same,IC50,second compound 1 µM,479 nM
same,IC50,second compound 3.16 µM,420 nM
same,IC50,second compound 10 µM,512 nM
same,"viability, T/C","second compound 0.1 µM, first compound 0.00949 µM",124%
same,"viability, T/C","second compound 0.1 µM, first compound 0.03 µM",155%
same,"viability, T/C","second compound 0.1 µM, first compound 0.0949 µM",154%
same,"viability, T/C","second compound 0.1 µM, first compound 0.3 µM",58.9%
same,"viability, T/C","second compound 0.1 µM, first compound 0.949 µM",36.9%
same,"viability, T/C","second compound 0.1 µM, first compound 3 µM",27%
same,"viability, T/C","second compound 0.316 µM, first compound 0.00949 µM",128%
same,"viability, T/C","second compound 0.316 µM, first compound 0.03 µM",156%
same,"viability, T/C","second compound 0.316 µM, first compound 0.0949 µM",135%
same,"viability, T/C","second compound 0.316 µM, first compound 0.3 µM",71.1%
same,"viability, T/C","second compound 0.316 µM, first compound 0.949 µM",37.5%
same,"viability, T/C","second compound 0.316 µM, first compound 3 µM",25.4%
same,"viability, T/C","second compound 1 µM, first compound 0.00949 µM",114%
same,"viability, T/C","second compound 1 µM, first compound 0.03 µM",155%
same,"viability, T/C","second compound 1 µM, first compound 0.0949 µM",146%
same,"viability, T/C","second compound 1 µM, first compound 0.3 µM",62.5%
same,"viability, T/C","second compound 1 µM, first compound 0.949 µM",36.6%
same,"viability, T/C","second compound 1 µM, first compound 3 µM",26.9%
same,"viability, T/C","second compound 3.16 µM, first compound 0.00949 µM",110%
same,"viability, T/C","second compound 3.16 µM, first compound 0.03 µM",148%
same,"viability, T/C","second compound 3.16 µM, first compound 0.0949 µM",138%
same,"viability, T/C","second compound 3.16 µM, first compound 0.3 µM",55.4%
same,"viability, T/C","second compound 3.16 µM, first compound 0.949 µM",43.1%
same,"viability, T/C","second compound 3.16 µM, first compound 3 µM",30.8%
same,"viability, T/C","second compound 10 µM, first compound 0.00949 µM",155%
same,"viability, T/C","second compound 10 µM, first compound 0.03 µM",151%
same,"viability, T/C","second compound 10 µM, first compound 0.0949 µM",114%
same,"viability, T/C","second compound 10 µM, first compound 0.3 µM",61.1%
same,"viability, T/C","second compound 10 µM, first compound 0.949 µM",40.8%
same,"viability, T/C","second compound 10 µM, first compound 3 µM",23%

# — PubChem BioAssay AID1918949 (Molecular Pharmacology Branch, DTP, NCI, 2023)
